Assay results taken from US12077503B2, “Substituted cyclic amides and their use as herbicides” (FMC CORPORATION, priority 2015, dated 2024).

Key:
Type in all cases: in vivo
[1] = test system: ivy-leaved morning glory (Ipomoea hederacea); assay: Test G Post-Emergence Protocol; settings: Ipomoea, post-emergence, 312 h; for pest or weed control at 15.625 g/ha: 15.625 g ai/ha, evaluated after 13 days (100=total damage to plant; 0=no damage to plant), read-out: Morningglory, Ivy-leaved damage rating; for pest or weed control at 62.5 g/ha: 62.5 g ai/ha, read-out: Morningglory, Ivy-leaved damage rating (100=total damage to plant; 0=no damage to plant); for pest or weed control at 62.5 g/ha / pest or weed control at 250 g/ha: evaluated after 13 days; for pest or weed control at 250 g/ha: 250 g ai/ha, read-out: damage to plant, Morningglory, Ivy-leaved (100=total damage to plant; 0=no damage to plant)
Outline: (§1)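 Seedlings grown 8 days in soil in a glasshouse (24/16 °C day/night, 14 h light, 65% humidity) were sprayed post-emergence with compound in acetone/water 50:50 plus 0.5% Tween 20 at 15.625, 62.5 or 250 g/ha. Damage was scored after 13 days on a 0–100 scale (100 = total damage).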

[2] = test system: velvetleaf (Abutilon theophrasti); assay: Test G Post-Emergence Protocol; settings: Abutilon theophrasti, post-emergence, 312 h; for pest or weed control at 15.625 g/ha: 15.625 g ai/ha, evaluated after 13 days (100=total damage to plant; 0=no damage to plant), read-out: Velvetleaf damage rating; for pest or weed control at 62.5 g/ha: 62.5 g ai/ha, read-out: Velvetleaf damage rating (100=total damage to plant; 0=no damage to plant); for pest or weed control at 62.5 g/ha / pest or weed control at 250 g/ha: evaluated after 13 days; for pest or weed control at 250 g/ha: 250 g ai/ha, read-out: damage to plant, Velvetleaf (100=total damage to plant; 0=no damage to plant)
Outline: as §1

[3] = test system: barnyardgrass (Echinochloa crus-galli); assay: Test G Post-Emergence Protocol; settings: Echinochloa crus-galli, post-emergence, 312 h; for pest or weed control at 15.625 g/ha: 15.625 g ai/ha, evaluated after 13 days (100=total damage to plant; 0=no damage to plant), read-out: Barnyardgrass damage rating; for pest or weed control at 62.5 g/ha: 62.5 g ai/ha, read-out: Barnyardgrass damage rating (100=total damage to plant; 0=no damage to plant); for pest or weed control at 62.5 g/ha / pest or weed control at 250 g/ha: evaluated after 13 days; for pest or weed control at 250 g/ha: 250 g ai/ha, read-out: damage to plant, Barnyardgrass (100=total damage to plant; 0=no damage to plant)
Outline: as §1

[4] = test system: giant foxtail (Setaria faberi); assay: Test G Post-Emergence Protocol; settings: Setaria faberi, post-emergence, 312 h; for pest or weed control at 15.625 g/ha: 15.625 g ai/ha, evaluated after 13 days (100=total damage to plant; 0=no damage to plant), read-out: Foxtail, Giant damage rating; for pest or weed control at 62.5 g/ha: 62.5 g ai/ha, read-out: Foxtail, Giant damage rating (100=total damage to plant; 0=no damage to plant); for pest or weed control at 62.5 g/ha / pest or weed control at 250 g/ha: evaluated after 13 days; for pest or weed control at 250 g/ha: 250 g ai/ha, read-out: damage to plant, Foxtail, Giant (100=total damage to plant; 0=no damage to plant)
Outline: as §1

[5] = test system: redroot pigweed (Amaranthus retroflexus); assay: Test G Post-Emergence Protocol; settings: Amaranthus retroflexus, post-emergence, 312 h; for pest or weed control at 15.625 g/ha: 15.625 g ai/ha, evaluated after 13 days (100=total damage to plant; 0=no damage to plant), read-out: Pigweed, Redroot damage rating; for pest or weed control at 62.5 g/ha: 62.5 g ai/ha, read-out: Pigweed, Redroot damage rating (100=total damage to plant; 0=no damage to plant); for pest or weed control at 62.5 g/ha / pest or weed control at 250 g/ha: evaluated after 13 days; for pest or weed control at 250 g/ha: 250 g ai/ha, read-out: damage to plant, Pigweed, Redroot (100=total damage to plant; 0=no damage to plant)
Outline: as §1

[6] = test system: corn (Zea mays); assay: Test G Post-Emergence Protocol; settings: Zea mays, post-emergence, 312 h; for plant injury at 15.625 g/ha: 15.625 g ai/ha, evaluated after 13 days (100=total damage to plant; 0=no damage to plant), read-out: Corn damage rating; for plant injury at 62.5 g/ha: 62.5 g ai/ha, read-out: Corn damage rating (100=total damage to plant; 0=no damage to plant); for plant injury at 62.5 g/ha / plant injury at 250 g/ha: evaluated after 13 days; for plant injury at 250 g/ha: 250 g ai/ha, read-out: damage to plant, Corn (100=total damage to plant; 0=no damage to plant)
Outline: as §1

[7] = test system: ivy-leaved morning glory (Ipomoea hederacea); assay: Test G Pre-Emergence Protocol; settings: Ipomoea, pre-emergence, 312 h, evaluated after 13 days; for pest or weed control at 15.625 g/ha: 15.625 g ai/ha, read-out: Morning-glory, Ivy-leaved damage rating (100=total damage to plant; 0=no damage to plant); for pest or weed control at 62.5 g/ha: 62.5 g ai/ha, 100=total damage to plant, 0=no damage to plant, read-out: plant damage rating, Morningglory, Ivy-leaved; for pest or weed control at 250 g/ha: 250 g ai/ha, read-out: Morningglory, Ivy-leaved damage rating (100=total damage to plant; 0=no damage to plant)
Outline: (§2)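 Test compound in 0.5% Tween 20 acetone/water (50:50) was applied at three rates (15.625, 62.5, 250 g/ha) to soil sown one day earlier. After 13 days plants were scored for injury, where 0 means unaffected and 100 means completely damaged.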

[8] = test system: velvetleaf (Abutilon theophrasti); assay: Test G Pre-Emergence Protocol; settings: Abutilon theophrasti, pre-emergence, 312 h, evaluated after 13 days; for pest or weed control at 15.625 g/ha: 15.625 g ai/ha; for pest or weed control at 15.625 g/ha / pest or weed control at 250 g/ha: read-out: Velvetleaf damage rating (100=total damage to plant; 0=no damage to plant); for pest or weed control at 62.5 g/ha: 62.5 g ai/ha, 100=total damage to plant, 0=no damage to plant, read-out: plant damage rating, Velvetleaf; for pest or weed control at 250 g/ha: 250 g ai/ha
Outline: as §2

[9] = test system: barnyardgrass (Echinochloa crus-galli); assay: Test G Pre-Emergence Protocol; settings: Echinochloa crus-galli, pre-emergence, 312 h, evaluated after 13 days; for pest or weed control at 15.625 g/ha: 15.625 g ai/ha, read-out: Barnyard grass damage rating (100=total damage to plant; 0=no damage to plant); for pest or weed control at 62.5 g/ha: 62.5 g ai/ha, 100=total damage to plant, 0=no damage to plant, read-out: plant damage rating, Barnyardgrass; for pest or weed control at 250 g/ha: 250 g ai/ha, read-out: Barnyardgrass damage rating (100=total damage to plant; 0=no damage to plant)
Outline: as §2

[10] = test system: giant foxtail (Setaria faberi); assay: Test G Pre-Emergence Protocol; settings: Setaria faberi, pre-emergence, 312 h, evaluated after 13 days; for pest or weed control at 15.625 g/ha: 15.625 g ai/ha; for pest or weed control at 15.625 g/ha / pest or weed control at 250 g/ha: read-out: Foxtail, Giant damage rating (100=total damage to plant; 0=no damage to plant); for pest or weed control at 62.5 g/ha: 62.5 g ai/ha, 100=total damage to plant, 0=no damage to plant, read-out: plant damage rating, Foxtail, Giant; for pest or weed control at 250 g/ha: 250 g ai/ha
Outline: as §2

[11] = test system: redroot pigweed (Amaranthus retroflexus); assay: Test G Pre-Emergence Protocol; settings: Amaranthus retroflexus, pre-emergence, 312 h, evaluated after 13 days; for pest or weed control at 15.625 g/ha: 15.625 g ai/ha; for pest or weed control at 15.625 g/ha / pest or weed control at 250 g/ha: read-out: Pigweed, Redroot damage rating (100=total damage to plant; 0=no damage to plant); for pest or weed control at 62.5 g/ha: 62.5 g ai/ha, 100=total damage to plant, 0=no damage to plant, read-out: plant damage rating, Pigweed, Redroot; for pest or weed control at 250 g/ha: 250 g ai/ha
Outline: as §2

[12] = test system: corn (Zea mays); assay: Test G Pre-Emergence Protocol; settings: Zea mays, pre-emergence, 312 h, evaluated after 13 days; for plant injury at 15.625 g/ha: 15.625 g ai/ha; for plant injury at 15.625 g/ha / plant injury at 250 g/ha: read-out: Corn damage rating (100=total damage to plant; 0=no damage to plant); for plant injury at 62.5 g/ha: 62.5 g ai/ha, 100=total damage to plant, 0=no damage to plant, read-out: plant damage rating, Corn; for plant injury at 250 g/ha: 250 g ai/ha
Outline: as §2

Structure (SMILES) | pest or weed control at 15.625 g/ha [1] [%] | pest or weed control at 62.5 g/ha [1] [%] | pest or weed control at 250 g/ha [1] [%] | pest or weed control at 15.625 g/ha [2] [%] | pest or weed control at 62.5 g/ha [2] [%] | pest or weed control at 250 g/ha [2] [%] | pest or weed control at 15.625 g/ha [3] [%] | pest or weed control at 62.5 g/ha [3] [%] | pest or weed control at 250 g/ha [3] [%] | pest or weed control at 15.625 g/ha [4] [%] | pest or weed control at 62.5 g/ha [4] [%] | pest or weed control at 250 g/ha [4] [%] | pest or weed control at 15.625 g/ha [5] [%] | pest or weed control at 62.5 g/ha [5] [%] | pest or weed control at 250 g/ha [5] [%] | plant injury at 15.625 g/ha [6] [%] | plant injury at 62.5 g/ha [6] [%] | plant injury at 250 g/ha [6] [%] | pest or weed control at 15.625 g/ha [7] [%] | pest or weed control at 62.5 g/ha [7] [%] | other results
CN1C[C@@H](c2ccc(C(F)(F)F)cc2)[C@H](C(=O)Nc2ccc(F)c(Cl)c2F)C1=O (racemic) [Compound 1628] | 20 | 20 | 50 | 30 | 20 | 20 | 30 | 70 | 70 | 70 | 80 | 80 | 10 | 50 | 60 | 0 | 0 | 50 | 20 | 0 | pest or weed control at 250 g/ha [7]: 20%; pest or weed control at 15.625 g/ha [8]: 0%; pest or weed control at 62.5 g/ha [8]: 0%; pest or weed control at 250 g/ha [8]: 0%; pest or weed control at 15.625 g/ha [9]: 10%; pest or weed control at 62.5 g/ha [9]: 0%; pest or weed control at 250 g/ha [9]: 70%; pest or weed control at 15.625 g/ha [10]: 50%; pest or weed control at 62.5 g/ha [10]: 50%; pest or weed control at 250 g/ha [10]: 80%; pest or weed control at 15.625 g/ha [11]: 0%; pest or weed control at 62.5 g/ha [11]: 30%; pest or weed control at 250 g/ha [11]: 50%; plant injury at 15.625 g/ha [12]: 0%; plant injury at 62.5 g/ha [12]: 0%; plant injury at 250 g/ha [12]: 0%
CN1C[C@@H](c2cc(Cl)nc(C(F)(F)F)c2)[C@H](C(=O)Nc2cccc(F)c2F)C1=O (racemic) [Compound 1485] | 0 | 0 | 20 | 0 | 10 | 20 | 50 | 70 | 70 | 60 | 70 | 70 | 0 | 20 | 40 | 40 | 70 | 80 | 0 | 0 | pest or weed control at 250 g/ha [7]: 0%; pest or weed control at 15.625 g/ha [8]: 0%; pest or weed control at 62.5 g/ha [8]: 0%; pest or weed control at 250 g/ha [8]: 30%; pest or weed control at 15.625 g/ha [9]: 60%; pest or weed control at 62.5 g/ha [9]: 90%; pest or weed control at 250 g/ha [9]: 90%; pest or weed control at 15.625 g/ha [10]: 60%; pest or weed control at 62.5 g/ha [10]: 90%; pest or weed control at 250 g/ha [10]: 90%; pest or weed control at 15.625 g/ha [11]: 0%; pest or weed control at 62.5 g/ha [11]: 30%; pest or weed control at 250 g/ha [11]: 60%; plant injury at 15.625 g/ha [12]: 40%; plant injury at 62.5 g/ha [12]: 70%; plant injury at 250 g/ha [12]: 80%
